Laboratory results reported in ChEMBL document CHEMBL5055652 (Bioorg Med Chem, 2021).
Calls of active or inactive are those of the source. The rule behind the calls is not given here.

Assays:
Format in all cases: cell-based
[1] = molecular target: T1, Progesterone receptor (Homo sapiens) (UniProt P06401); assay: Agonist activity at PR in human T47D cells using p-nitrophenyl phosphate as substrate assessed as induction of alkaline phosphatase activity at 1 nM incubated for 72 hrs followed by substrate addition measured after 24 hrs by alkaline phosphatase assay relative to control; settings: filed as agonist, time 96.0 hrs
T1 sequence (whole entry): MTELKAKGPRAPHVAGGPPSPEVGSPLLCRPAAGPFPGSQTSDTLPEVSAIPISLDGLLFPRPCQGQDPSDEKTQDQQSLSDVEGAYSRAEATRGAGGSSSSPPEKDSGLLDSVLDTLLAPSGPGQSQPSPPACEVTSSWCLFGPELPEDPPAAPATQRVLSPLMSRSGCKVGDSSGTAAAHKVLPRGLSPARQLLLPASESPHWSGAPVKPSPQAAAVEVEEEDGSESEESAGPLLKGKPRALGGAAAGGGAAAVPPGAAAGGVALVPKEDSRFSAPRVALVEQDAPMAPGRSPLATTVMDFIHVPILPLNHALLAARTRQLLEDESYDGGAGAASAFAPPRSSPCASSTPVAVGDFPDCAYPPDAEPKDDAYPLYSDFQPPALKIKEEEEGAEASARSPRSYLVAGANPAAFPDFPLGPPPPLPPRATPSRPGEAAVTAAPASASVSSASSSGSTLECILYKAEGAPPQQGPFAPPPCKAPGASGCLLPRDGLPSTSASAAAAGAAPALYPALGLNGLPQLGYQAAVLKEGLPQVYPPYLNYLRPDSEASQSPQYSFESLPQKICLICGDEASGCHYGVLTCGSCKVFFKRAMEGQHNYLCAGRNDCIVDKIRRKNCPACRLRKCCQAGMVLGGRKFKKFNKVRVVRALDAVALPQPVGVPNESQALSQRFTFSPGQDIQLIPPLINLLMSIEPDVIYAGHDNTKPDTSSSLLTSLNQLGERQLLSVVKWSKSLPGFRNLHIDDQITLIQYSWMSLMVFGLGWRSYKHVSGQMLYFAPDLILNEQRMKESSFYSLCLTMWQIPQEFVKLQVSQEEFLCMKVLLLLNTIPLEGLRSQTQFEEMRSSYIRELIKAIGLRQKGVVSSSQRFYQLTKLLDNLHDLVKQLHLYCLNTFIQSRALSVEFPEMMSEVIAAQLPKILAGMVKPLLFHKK

[2] = molecular target: T2, Progesterone receptor (Homo sapiens, UniProt P06401); assay: Agonist activity at PR in human T47D cells using p-nitrophenyl phosphate as substrate assessed as induction of alkaline phosphatase activity incubated for 72 hrs followed by substrate addition measured after 24 hrs by alkaline phosphatase assay
T2 sequence (P06401 whole entry): T1 sequence (whole entry)

[3] = molecular target: T1, Progesterone receptor (Homo sapiens); assay: Agonist activity at PR in human T47D cells using p-nitrophenyl phosphate as substrate assessed as fold increase in alkaline phosphatase activity at 25 nM incubated for 72 hrs followed by substrate addition measured after 24 hrs by alkaline phosphatase assay relative to control; settings: filed as agonist, time 96.0 hrs
[4] = molecular target: T1, Progesterone receptor (Homo sapiens); assay: Agonist activity at PR in human T47D cells using p-nitrophenyl phosphate as substrate assessed as induction of alkaline phosphatase activity at 125 nM incubated for 72 hrs followed by substrate addition measured after 24 hrs by alkaline phosphatase assay; settings: time 96.0 hrs

Compound | Activity [1] | EC50 [2] | fold change (FC) [3] | Activity [4]
CC(=O)O[C@]1(C(C)=O)CC[C@H]2[C@@H]3CCC4=CC(=O)CC[C@@H]4[C@H]3[C@@H](C)C[C@@]21C [NORGESTOMET] | 106% | 4.5 nM | 2 | –
CC(=O)O[C@@]1(C(C)=O)CC[C@H]2[C@@H]3CCC4=CC(=O)CC[C@@H]4[C@H]3[C@@H](C)C[C@@]21C | 89.3% | > 125 nM | – | inactive
CC(=O)[C@H]1CC[C@H]2[C@@H]3CCC4=CC(=O)CC[C@]4(C)[C@H]3CC[C@]12C | 158% | – | – | –
